# BigSolDB 2.1
smiles,measurement,setting,value
O=C(O)c1cc2ccccc2[nH]1,solubility (mole fraction),"in 1,4-dioxane, 286.35 K",0.00276
same,solubility (mole fraction),"in 1,4-dioxane, 291.25 K",0.00343
same,solubility (mole fraction),"in 1,4-dioxane, 297.05 K",0.00427
same,solubility (mole fraction),"in 1,4-dioxane, 301.95 K",0.00476
same,solubility (mole fraction),"in 1,4-dioxane, 306.95 K",0.0052
same,solubility (mole fraction),"in 1,4-dioxane, 312.15 K",0.00592
same,solubility (mole fraction),"in 1,4-dioxane, 317.25 K",0.00636
same,solubility (mole fraction),"in 1,4-dioxane, 321.65 K",0.00689
same,solubility (mole fraction),"in 1,4-dioxane, 326.55 K",0.00728
same,solubility (mole fraction),"in 1,4-dioxane, 331.95 K",0.00791
same,solubility (mole fraction),"in 1,4-dioxane, 336.65 K",0.00866
same,solubility (mole fraction),"in dichloromethane, 283.15 K",0.000684
same,solubility (mole fraction),"in dichloromethane, 287.15 K",0.000724
same,solubility (mole fraction),"in dichloromethane, 292.75 K",0.000873
same,solubility (mole fraction),"in dichloromethane, 295.65 K",0.00104
same,solubility (mole fraction),"in dichloromethane, 299.05 K",0.00119
same,solubility (mole fraction),"in dichloromethane, 302.65 K",0.00134
same,solubility (mole fraction),"in dichloromethane, 307.25 K",0.00168
same,solubility (mole fraction),"in dichloromethane, 313.15 K",0.00224
same,solubility (mole fraction),"in ethanol, 278.15 K",0.0569
same,solubility (mole fraction),"in ethanol, 283.15 K",0.062
same,solubility (mole fraction),"in ethanol, 287.95 K",0.0666
same,solubility (mole fraction),"in ethanol, 292.75 K",0.0701
same,solubility (mole fraction),"in ethanol, 297.95 K",0.078
same,solubility (mole fraction),"in ethanol, 303.05 K",0.0816
same,solubility (mole fraction),"in ethanol, 308.35 K",0.0881
same,solubility (mole fraction),"in ethanol, 313.25 K",0.0974
same,solubility (mole fraction),"in ethanol, 318.65 K",0.102
same,solubility (mole fraction),"in ethanol, 324.95 K",0.116
same,solubility (mole fraction),"in ethanol, 329.85 K",0.12
same,solubility (mole fraction),"in ethanol, 336.25 K",0.135
same,solubility (mole fraction),"in ethanol, 342.75 K",0.148
same,solubility (mole fraction),"in ethanol, 348.25 K",0.154
same,solubility (mole fraction),"in ethanol, 353.15 K",0.165
same,solubility (mole fraction),"in ethyl acetate, 284.05 K",0.0433
same,solubility (mole fraction),"in ethyl acetate, 290.45 K",0.06
same,solubility (mole fraction),"in ethyl acetate, 294.65 K",0.0735
same,solubility (mole fraction),"in ethyl acetate, 299.55 K",0.0865
same,solubility (mole fraction),"in ethyl acetate, 304.65 K",0.1
same,solubility (mole fraction),"in ethyl acetate, 309.35 K",0.108
same,solubility (mole fraction),"in ethyl acetate, 313.95 K",0.116
same,solubility (mole fraction),"in ethyl acetate, 318.65 K",0.121
same,solubility (mole fraction),"in ethyl acetate, 324.35 K",0.128
same,solubility (mole fraction),"in ethyl acetate, 328.75 K",0.134
same,solubility (mole fraction),"in ethyl acetate, 333.65 K",0.14
same,solubility (mole fraction),"in isopropanol, 278.35 K",0.0412
same,solubility (mole fraction),"in isopropanol, 285.15 K",0.0525
same,solubility (mole fraction),"in isopropanol, 291.05 K",0.0606
same,solubility (mole fraction),"in isopropanol, 298.15 K",0.0701
same,solubility (mole fraction),"in isopropanol, 305.55 K",0.0855
same,solubility (mole fraction),"in isopropanol, 310.15 K",0.0949
same,solubility (mole fraction),"in isopropanol, 315.75 K",0.108
same,solubility (mole fraction),"in isopropanol, 321.35 K",0.119
same,solubility (mole fraction),"in isopropanol, 328.65 K",0.131
same,solubility (mole fraction),"in isopropanol, 333.35 K",0.149
same,solubility (mole fraction),"in isopropanol, 338.75 K",0.161
same,solubility (mole fraction),"in isopropanol, 342.25 K",0.171
same,solubility (mole fraction),"in isopropanol, 348.15 K",0.191
same,solubility (mole fraction),"in isopropanol, 353.25 K",0.201
same,solubility (mole fraction),"in isopropanol, 358.15 K",0.219
same,solubility (mole fraction),"in methanol, 278.15 K",0.0679
same,solubility (mole fraction),"in methanol, 283.35 K",0.0695
same,solubility (mole fraction),"in methanol, 288.95 K",0.0723
same,solubility (mole fraction),"in methanol, 293.25 K",0.0752
same,solubility (mole fraction),"in methanol, 298.15 K",0.0856
same,solubility (mole fraction),"in methanol, 303.35 K",0.0925
same,solubility (mole fraction),"in methanol, 307.85 K",0.102
same,solubility (mole fraction),"in methanol, 312.95 K",0.118
same,solubility (mole fraction),"in methanol, 317.75 K",0.135
same,solubility (mole fraction),"in methanol, 323.15 K",0.159
same,solubility (mole fraction),"in methanol, 328.25 K",0.189
same,solubility (mole fraction),"in methanol, 333.15 K",0.23
same,solubility (mole fraction),"in n-butanol, 278.15 K",0.0478
same,solubility (mole fraction),"in n-butanol, 285.35 K",0.0538
same,solubility (mole fraction),"in n-butanol, 291.05 K",0.0605
same,solubility (mole fraction),"in n-butanol, 298.55 K",0.0687
same,solubility (mole fraction),"in n-butanol, 305.25 K",0.0758
same,solubility (mole fraction),"in n-butanol, 310.75 K",0.0832
same,solubility (mole fraction),"in n-butanol, 315.15 K",0.0909
same,solubility (mole fraction),"in n-butanol, 321.75 K",0.101
same,solubility (mole fraction),"in n-butanol, 328.35 K",0.112
same,solubility (mole fraction),"in n-butanol, 333.95 K",0.125
same,solubility (mole fraction),"in n-butanol, 338.15 K",0.14
same,solubility (mole fraction),"in n-butanol, 342.45 K",0.143
same,solubility (mole fraction),"in n-butanol, 348.25 K",0.16
same,solubility (mole fraction),"in n-butanol, 353.45 K",0.174
same,solubility (mole fraction),"in n-butanol, 358.15 K",0.19
same,solubility (mole fraction),"in n-propanol, 278.25 K",0.0437
same,solubility (mole fraction),"in n-propanol, 285.45 K",0.0521
same,solubility (mole fraction),"in n-propanol, 291.35 K",0.0588
same,solubility (mole fraction),"in n-propanol, 298.15 K",0.068
same,solubility (mole fraction),"in n-propanol, 305.75 K",0.0801
same,solubility (mole fraction),"in n-propanol, 311.25 K",0.088
same,solubility (mole fraction),"in n-propanol, 317.75 K",0.0993
same,solubility (mole fraction),"in n-propanol, 322.15 K",0.105
same,solubility (mole fraction),"in n-propanol, 328.05 K",0.115
same,solubility (mole fraction),"in n-propanol, 333.55 K",0.128
same,solubility (mole fraction),"in n-propanol, 339.15 K",0.138
same,solubility (mole fraction),"in n-propanol, 344.85 K",0.151
same,solubility (mole fraction),"in n-propanol, 349.75 K",0.162
same,solubility (mole fraction),"in n-propanol, 353.15 K",0.176
same,solubility (mole fraction),"in n-propanol, 358.15 K",0.18
same,solubility (mole fraction),"in toluene, 287.85 K",0.00052
same,solubility (mole fraction),"in toluene, 293.65 K",0.000645
same,solubility (mole fraction),"in toluene, 297.95 K",0.000722
same,solubility (mole fraction),"in toluene, 302.85 K",0.000786
same,solubility (mole fraction),"in toluene, 307.05 K",0.000898
same,solubility (mole fraction),"in toluene, 311.55 K",0.000989
same,solubility (mole fraction),"in toluene, 313.55 K",0.00104
same,solubility (mole fraction),"in toluene, 317.45 K",0.00113
same,solubility (mole fraction),"in toluene, 325.15 K",0.00155
same,solubility (mole fraction),"in toluene, 337.85 K",0.00295
same,solubility (mole fraction),"in toluene, 342.55 K",0.00379
same,solubility (mole fraction),"in toluene, 348.25 K",0.00427
same,solubility (mole fraction),"in toluene, 360.15 K",0.00642
same,solubility (mole fraction),"in water, 293.15 K",6.79e-05
same,solubility (mole fraction),"in water, 298.15 K",6.88e-05
same,solubility (mole fraction),"in water, 303.15 K",7.03e-05
same,solubility (mole fraction),"in water, 308.05 K",7.17e-05
same,solubility (mole fraction),"in water, 312.65 K",7.88e-05
same,solubility (mole fraction),"in water, 318.15 K",9.36e-05
same,solubility (mole fraction),"in water, 323.15 K",0.000115
same,solubility (mole fraction),"in water, 328.15 K",0.000149
same,solubility (mole fraction),"in water, 333.15 K",0.0002
same,solubility (mole fraction),"in water, 338.15 K",0.00028
same,solubility (mole fraction),"in water, 343.15 K",0.000409
same,solubility (mole fraction),"in water, 348.15 K",0.000616
same,solubility (mole fraction),"in water, 353.15 K",0.000962
same,solubility (mole fraction),"in water, 358.15 K",0.00155
